From article PMC8123555, “Precision targeting of the plasminogen activator inhibitor‐1 mechanism increases efficacy of fibrinolytic therapy in empyema” (Physiological Reports, 2021)
Like-named read-outs stand apart in the source and are kept apart here. Where no end group is shown, it is not given here.

Key:
[1] = rabbit, in vivo
Method: (§1) FIGURE 7 Low dose PAI‐1‐TFT induces no intrapleural bleeding. Pleural fluids from rabbits with TCN‐induced (a) or S. pneumoniae‐induced (b) pleural injury were collected at necropsy and red blood cells (RBC) were counted using a Beckman Coulter. (a) Animals with TCN‐induced pleural injury were treated (from left to right) with vehicle control (n = 6); 62.5 µg/kg of scuPA alone (n = 6); and with 2.0 mg/kg DSP (n = 6); 72.5 µg/kg of sctPA alone (n = 5), and with 2.0 mg/kg DSP (n = 6). (b) Animals with infectious pleural injury were treated (from left to right) with vehicle control (n = 6); 0.25 mg/kg of sctPA alone (n = 5), and with 8.0 mg/kg DSP (n = 6), 0.5 mg/kg of sctPA alone (n = 6), and with 8.0 mg/kg DSP (n = 6), 0.5 mg/kg of scuPA alone (n = 9), and with 8.0 mg/kg DSP (n = 3). […] Data are presented as box and whisker plots (all points shown)

[2] = Intrapleural bleeding, pleural fluid RBC counts, empyema; type: in vivo, rabbit
Method: as §1

[3] = rabbit, in vivo; remark: listed apart in the source
Method: All animal procedures were approved by the Institutional Animal Care and Use Committee at The University of Texas Health Science Center at Tyler (IACUC protocols 499,616,617). Studies used female, pathogen‐free New Zealand white rabbits (3.0–3.6 kg; average age 18 weeks) from Charles River Laboratories (Wilmington, MA). These studies required a total of 107 rabbits, 43 for the model of TCN‐induced pleural injury and 64 for the model of empyema. […] Briefly, a 3 ml mixture of TCN in ascorbic acid (20 mg/ml TCN (T3258, Sigma‐Aldrich), 2.5 mg/ml ascorbic acid (A7506, Sigma‐Aldrich) and lidocaine (1 mg/ml, UTHCT Compounding Pharmacy), was delivered by intrapleural injection. A model of acute empyema in rabbits was induced as described previously (Komissarov et al., 2016). Briefly, 1–5 × 10^8 cfu of S. pneumoniae (D39 strain, National Collection of Type Cultures, Salisbury UK) in 3 ml of 0.5% brain‐heart infusion agar (BD 238400, BD Diagnostic Systems) was delivered by intrapleural injection. Clavomox (10 mg/kg, subcutaneous, daily for 1–3 days as clinically indicated by Attending Veterinarian) (10000485, Zoetis) was started at 28–30 h post‐infection. Accumulation of pleural fluid and fibrin deposition was monitored using ultrasonography; detailed in the ultrasonography subsection. After 48 or 72 h for TCN‐induced pleural injury and empyema, respectively, intrapleural therapeutics were administered depending on treatment group via an 18‐gauge catheter, which was flushed with 0.5 ml PBS. In all experiments, samples of pleural fluids (0.5 ml) from each rabbit were collected prior to and at 10, 20, and 40 min after PAI‐1‐TFT and processed for later analysis (Florova et al., 2015; Karandashova et al., 2013; Komissarov et al., 2013, 2016). […] Animals were monitored carefully for signs of distress, pain, and worsening clinical status. […]
The residual DSP in pleural fluid samples was determined using LC MS/MS. […]

in vivo = conditions: rabbit
Method: All animal procedures were approved by the Institutional Animal Care and Use Committee at The University of Texas Health Science Center at Tyler (IACUC protocols 499,616,617). Studies used female, pathogen‐free New Zealand white rabbits (3.0–3.6 kg; average age 18 weeks) from Charles River Laboratories (Wilmington, MA). These studies required a total of 107 rabbits, 43 for the model of TCN‐induced pleural injury and 64 for the model of empyema. […] Briefly, a 3 ml mixture of TCN in ascorbic acid (20 mg/ml TCN (T3258, Sigma‐Aldrich), 2.5 mg/ml ascorbic acid (A7506, Sigma‐Aldrich) and lidocaine (1 mg/ml, UTHCT Compounding Pharmacy), was delivered by intrapleural injection. A model of acute empyema in rabbits was induced as described previously (Komissarov et al., 2016). Briefly, 1–5 × 10^8 cfu of S. pneumoniae (D39 strain, National Collection of Type Cultures, Salisbury UK) in 3 ml of 0.5% brain‐heart infusion agar (BD 238400, BD Diagnostic Systems) was delivered by intrapleural injection. Clavomox (10 mg/kg, subcutaneous, daily for 1–3 days as clinically indicated by Attending Veterinarian) (10000485, Zoetis) was started at 28–30 h post‐infection. Accumulation of pleural fluid and fibrin deposition was monitored using ultrasonography; detailed in the ultrasonography subsection. After 48 or 72 h for TCN‐induced pleural injury and empyema, respectively, intrapleural therapeutics were administered depending on treatment group via an 18‐gauge catheter, which was flushed with 0.5 ml PBS. In all experiments, samples of pleural fluids (0.5 ml) from each rabbit were collected prior to and at 10, 20, and 40 min after PAI‐1‐TFT and processed for later analysis (Florova et al., 2015; Karandashova et al., 2013; Komissarov et al., 2013, 2016). Anesthesia, postoperative pain medication, and animal care were provided as reported previously (Florova et al., 2015; Karandashova et al., 2013; Komissarov et al., 2013, 2016). with details provided in the supplement. Animals were monitored carefully for signs of distress, pain, and worsening clinical status. Euthanasia was accomplished using intravenous injection of 1 ml of commercial euthanasia solution (sodium pentobarbital 390 mg/ml and phenytoin 50 mg/ml) followed by exsanguination.
The residual DSP in pleural fluid samples was determined using LC MS/MS. Briefly, collected samples were extracted using acetonitrile, cleaned with Microcon centrifugal filters (MRCPRT010, MilliporeSigma) and injected via autosampler onto a Pinnacle DB C8 Column (9413332, Restek) reverse‐phase column operated at a flow rate of 200 μl/min. A gradient elution method using solvent A (99% H2O, 1% acetonitrile, 0.05% TFA) for 5 min, a gradient to 100% solvent B (1% H2O, 99% acetonitrile, 0.05% TFA) over 25 min, and 100% solvent B for 2 min was employed. […]

PAI‐1 = conditions: alanine mutations of positively charged residues in the 37-loop; ref Benedict et al., 1995; Florova et al., 2018; Keyt et al., 1994; cited from earlier work
Source text: Plasminogen Activator Inhibitor‐1 (PAI‐1) is a mechanism‐based inhibitor of tissue type (tPA) and urokinase (uPA) plasminogen activators (PAs) (Carrell et al., 1991; Chaillan‐Huntington et al., 1997; Mourik et al., 1984) used for fibrinolytic therapy. Levels of PAI‐1 increase by up to three orders of magnitude in empyema (pleural sepsis), and organizing pleural injury (Aleman et al., 2003; Chung et al., 2005; Philip‐Joet et al., 1995), limiting endogenous and exogenous plasminogen activating activity that could help prevent or treat uncontrolled fibrin deposition induced by inflammation. Previ ...

## EEIIMD [DSP, EEIIMD]
[1]
  Bleeding accompanying PAI-1-TFT: no apparent local or systemic bleeding
[2]; DSP with plasminogen activator, empyema
  Bleeding accompanying PAI-1-TFT: no apparent local or systemic bleeding
[2]; any dose of DSP alone or in combination with plasminogen activator, pleural fluid at necropsy, Beckman Coulter
  Pleural fluid RBC counts: no statistical difference
[3]
  Apparent first order rate constant of DSP clearance (kclr), slower phase: 0.03 to 0.07 min⁻¹
  DSP in pleural fluid at 24 h: No DSP was detected
  Presence of DSP in pleural fluid after treatment: over 40 min
In vivo; female, New Zealand white, 8 mg/kg
  level at 40 min: > 300 µg/mL
In vivo
  Apparent first order rate constant of DSP clearance (kclr), slower phase: 0.03 to 0.07 min⁻¹
  DSP in pleural fluid at 24 h: No DSP was detected
  Presence of DSP in pleural fluid after treatment: over 40 min

## tenecteplase
PAI‐1
  Rate of reaction with PAI-1 relative to the WT enzymes: almost two orders of magnitude slower
